Laboratory results published in ChEMBL document CHEMBL1201862, “PubChem BioAssay data set” (2004).
Calls of active or inactive are those of the source. For most assays here, no stated cut-off is given here; in the data, actives have a measured EC50 and inactives only a lower limit.

Legend:
[1] = NIH-3T3 fibroblast cytotoxicity, dose response, cytotoxicity control, cell-based, fluorescence, Alamar Blue, secondary assay (AID 2327); format: functional;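 further: NIH-3T3 mouse fibroblasts cultured with fluconazole at 8 µg/mL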
[2] = biological target: T1, Serine/threonine-protein phosphatase (Candida dubliniensis (strain CD36 / CBS 7987 / NCPF 3949 / NRRLY-17841) (Yeast), UniProt B9W6M3); test: blockers of CaCl2-induced CDRE-lacZ signaling – S. cerevisiae, luminescence, secondary, dose response (AID 2388); format: functional, cell-based;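 further: yeast reporter cells carrying a calcineurin-responsive lacZ construct stimulated with calcium chloride; luminescent beta-galactosidase reporter signal in whole cells rather than isolated phosphatase activity; potency for inhibition where a drop in reporter signal means calcineurin blockade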
T1 sequence (B9W6M3 whole entry): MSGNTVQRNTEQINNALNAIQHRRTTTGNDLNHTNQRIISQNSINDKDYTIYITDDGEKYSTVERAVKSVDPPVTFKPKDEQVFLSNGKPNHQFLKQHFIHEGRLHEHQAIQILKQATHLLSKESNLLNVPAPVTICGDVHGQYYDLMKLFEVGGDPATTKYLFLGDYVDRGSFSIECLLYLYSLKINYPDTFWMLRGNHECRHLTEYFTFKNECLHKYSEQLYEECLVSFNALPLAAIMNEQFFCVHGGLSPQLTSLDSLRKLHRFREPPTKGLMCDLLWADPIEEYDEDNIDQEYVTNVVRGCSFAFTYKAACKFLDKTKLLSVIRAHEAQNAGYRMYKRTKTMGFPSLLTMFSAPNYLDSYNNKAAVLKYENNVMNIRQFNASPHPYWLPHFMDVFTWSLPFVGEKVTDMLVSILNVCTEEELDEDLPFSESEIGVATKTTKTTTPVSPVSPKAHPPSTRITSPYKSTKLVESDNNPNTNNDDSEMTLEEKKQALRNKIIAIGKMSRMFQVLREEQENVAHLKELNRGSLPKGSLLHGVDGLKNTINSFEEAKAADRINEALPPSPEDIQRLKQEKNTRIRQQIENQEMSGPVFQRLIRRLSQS

[3] = biological target: ATP-dependent molecular chaperone HSP82 (Candida albicans (strain WO-1) (Yeast), UniProt C4YTQ8); test: steroid-induced GRE reporter decrease in yeast – S. cerevisiae, luminescence, Hsp90 inhibitor project, dose response (AID 2400); format: functional, cell-based;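 further: beta-galactosidase luminescence from glucocorticoid response element reporter as proxy for Hsp90 function; inhibitor potency where signal loss means Hsp90 inhibition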
[4] = fluconazole-exposed Candida albicans growth modulators – fluorescence, retest, confirmation (AID 2467); format: functional, cell-based
[5] = Trypanosoma cruzi growth suppression in host cells – NIH3T3 host cells, beta-gal luminescence, confirmation (AID 2044); format: functional, cell-based;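 further: intracellular parasites grown in NIH/3T3 mouse fibroblasts as host cells; luminescent beta-galactosidase reporter signal from transgenic T. cruzi replicating inside host cells; inhibitors lower the luminescence signal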
[6] = NIH3T3 cell viability loss – ATP luminescence, mouse fibroblasts, counter-screen, dose response (AID 2010); format: functional, cell-based;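 further: cells exposed to compound for about 90 hours before reading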
Protein Wnt-3a = Protein Wnt-3a (Mus musculus, UniProt P27467); test: antagonism of Wnt3a pathway luciferase reporter – Wnt-LIGHT cells, luminescence, selectivity assay for Gli-SUFU antagonist project, dose response (AID 651570); format: functional; conditions: read-out: IC50_Mean;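 further: Wnt-LIGHT reporter cells stimulated with conditioned medium from Wnt3a-producing cells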
[7] = test system: Streptococcus sp. 'group A'; test: Streptococcus pyogenes SK(-)GAS viability under kanamycin – luminescence, BacTiterGlo, confirmation, counter-screen for streptokinase expression inhibitor project, dose response (AID 1900); format: functional, organism-based
Streptococcus = test: GAS UMAA2166 growth inhibition – luminescence, BacTiterGlo, counter-screen for streptokinase expression inhibitor project, dose response (AID 1915); format: functional, organism-based;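 further: potency for reduction of bacterial viability or growth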
INS1 = test: INS-1E survival protection against cytokine death – cell-based, luminescence, retest, dose response (AID 449756); format: functional; conditions: Rattus norvegicus;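 further: cell death triggered by IL-1 beta plus TNF-alpha plus IFN-gamma mixture; protective hits raise ATP signal compared with cytokine alone wells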
Streptokinase A = biological target: T2, Streptokinase A (Streptococcus pyogenes serotype M1, UniProt P10520); test: viability-normalized secreted streptokinase activity reduction – plasminogen activation absorbance, OD405, dose response (AID 1914); format: functional, Streptococcus pyogenes M1 GAS;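 further: secreted streptokinase activity via plasminogen activation per viability signal from cell pellet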
T2 sequence (P10520 whole entry): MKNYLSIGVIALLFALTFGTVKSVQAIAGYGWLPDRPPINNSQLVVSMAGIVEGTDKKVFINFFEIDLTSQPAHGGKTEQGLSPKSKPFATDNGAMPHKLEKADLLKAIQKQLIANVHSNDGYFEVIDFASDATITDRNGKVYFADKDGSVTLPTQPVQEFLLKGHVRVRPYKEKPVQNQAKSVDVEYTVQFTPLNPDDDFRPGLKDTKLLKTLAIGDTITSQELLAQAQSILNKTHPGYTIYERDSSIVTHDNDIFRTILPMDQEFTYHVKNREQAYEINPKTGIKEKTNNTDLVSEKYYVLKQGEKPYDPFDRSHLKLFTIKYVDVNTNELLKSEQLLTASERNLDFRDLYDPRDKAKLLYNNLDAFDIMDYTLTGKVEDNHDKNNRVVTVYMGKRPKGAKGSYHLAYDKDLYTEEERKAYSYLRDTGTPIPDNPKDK

[8] = biological target: T3, High affinity choline transporter 1 (Homo sapiens, UniProt Q9GZV3); test: human choline transporter blockers, potency – cell-based, 5-point CRC, membrane potential dye, dose response (AID 504840); format: functional
T3 sequence (Q9GZV3 whole entry): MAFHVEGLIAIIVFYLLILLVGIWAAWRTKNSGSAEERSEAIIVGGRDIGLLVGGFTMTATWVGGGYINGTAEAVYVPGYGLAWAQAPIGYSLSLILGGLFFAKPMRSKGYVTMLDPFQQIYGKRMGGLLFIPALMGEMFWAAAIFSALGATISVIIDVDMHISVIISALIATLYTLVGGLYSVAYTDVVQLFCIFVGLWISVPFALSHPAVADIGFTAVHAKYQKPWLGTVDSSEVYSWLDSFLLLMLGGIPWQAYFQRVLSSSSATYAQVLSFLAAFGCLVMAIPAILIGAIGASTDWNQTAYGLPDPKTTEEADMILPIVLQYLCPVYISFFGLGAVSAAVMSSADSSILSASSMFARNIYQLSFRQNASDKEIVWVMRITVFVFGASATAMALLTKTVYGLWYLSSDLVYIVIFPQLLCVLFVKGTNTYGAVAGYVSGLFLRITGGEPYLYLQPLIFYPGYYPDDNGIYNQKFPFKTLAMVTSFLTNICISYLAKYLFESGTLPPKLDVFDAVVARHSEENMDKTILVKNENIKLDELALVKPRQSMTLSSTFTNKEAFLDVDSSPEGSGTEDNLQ

[9] = non-specific 3'UTR reporter inhibition in Clone20-Shn3RL – cell-based, Renilla luciferase, cherry-picked, counter-screen for Shn3 inhibitor project, dose response (AID 624133); format: functional
[10] = loss of viability in HepG2 cells – cell-based, CellTiter-Glo, cherry-picked, cytotoxicity control for Shn3 inhibitor project, dose response (AID 624134); format: functional
[11] = reduction of Shn3 3'UTR-driven luciferase in osteoblasts – cell-based, Clone20 osteoblasts, firefly luciferase, cherry-picked, dose response (AID 624132); format: functional;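 further: firefly luciferase luminescence from reporter carrying the Shn3 3'UTR in osteoblasts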

Sequence of ATP-dependent molecular chaperone HSP82 (C4YTQ8 whole entry): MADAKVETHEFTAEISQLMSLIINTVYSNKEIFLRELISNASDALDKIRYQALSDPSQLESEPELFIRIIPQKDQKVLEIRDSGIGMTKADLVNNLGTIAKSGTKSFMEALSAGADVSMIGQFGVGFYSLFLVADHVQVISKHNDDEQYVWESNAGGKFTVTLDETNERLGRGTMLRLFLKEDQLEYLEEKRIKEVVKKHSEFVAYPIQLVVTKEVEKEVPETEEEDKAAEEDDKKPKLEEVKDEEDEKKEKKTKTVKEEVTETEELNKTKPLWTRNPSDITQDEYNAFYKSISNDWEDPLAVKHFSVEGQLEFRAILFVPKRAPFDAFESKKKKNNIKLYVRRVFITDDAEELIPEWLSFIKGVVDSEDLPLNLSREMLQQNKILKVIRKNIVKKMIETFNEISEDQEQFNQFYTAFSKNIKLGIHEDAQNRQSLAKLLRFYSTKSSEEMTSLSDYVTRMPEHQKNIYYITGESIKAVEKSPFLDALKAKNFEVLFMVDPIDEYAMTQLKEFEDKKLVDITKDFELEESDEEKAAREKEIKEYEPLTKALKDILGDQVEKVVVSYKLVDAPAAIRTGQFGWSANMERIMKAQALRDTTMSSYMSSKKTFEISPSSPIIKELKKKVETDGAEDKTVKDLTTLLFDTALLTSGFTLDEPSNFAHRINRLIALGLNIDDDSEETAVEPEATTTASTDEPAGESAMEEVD
Sequence of Protein Wnt-3a (P27467 whole entry): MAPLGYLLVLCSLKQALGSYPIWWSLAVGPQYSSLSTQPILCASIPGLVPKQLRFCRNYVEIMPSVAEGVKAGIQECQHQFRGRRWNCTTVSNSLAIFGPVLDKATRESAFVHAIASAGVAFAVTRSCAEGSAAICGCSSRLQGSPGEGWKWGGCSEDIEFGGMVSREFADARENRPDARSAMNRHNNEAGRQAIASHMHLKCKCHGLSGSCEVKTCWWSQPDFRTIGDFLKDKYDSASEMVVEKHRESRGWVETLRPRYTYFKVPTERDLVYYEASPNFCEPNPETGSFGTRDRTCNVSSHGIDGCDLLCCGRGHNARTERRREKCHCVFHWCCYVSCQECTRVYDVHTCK

Structure (SMILES) | EC50 [1] | EC50 [2] | EC50 [3] | EC50 [4] | IC50 (Protein Wnt-3a) | further results
O=C(c1ccc(Cn2c(=O)[nH]c3ccccc3c2=O)cc1)N1CCN(c2ccc(F)cc2)CC1 | 14.3 µM (active) | > 180 µM (inactive) | > 150 µM (inactive) | 0.912 µM (active) | – | –
CCCc1c(CC)c(=N)c2ccccc2n1C | – | – | – | – | 11.3 µM (active) | EC50 [5]: 0.121 µM (active); EC50 [6]: > 60 µM (not active)
CC(C)C(=O)NC(c1cccs1)c1cc([N+](=O)[O-])c2cccnc2c1O (stereo not drawn) | 13.4 µM (active) | > 180 µM (inactive) | 24.6 µM (active) | 0.242 µM (active) | – | EC50 [7]: 2.59 µM (active); EC50 (Streptococcus): 6.98 µM (active); AC50 (INS1): 3.87 µM (active); EC50 (Streptokinase A): > 150 µM (not active)
O=C(Nc1ccc(C(F)(F)F)cc1)C1CCN(S(=O)(=O)c2ccc(N3CCCC3=O)cc2)CC1 | – | – | – | – | 2.18 µM (active) | AC50 (INS1): 3.1 µM (active)
O=C(Nc1nnc(CCc2ccccc2)s1)c1ccco1 | > 150 µM (inactive) | > 180 µM (inactive) | > 150 µM (inactive) | 1.08 µM (active) | – | –
C[C@@H]1COC(=O)[C@H](NC(=O)OCC2c3ccccc3-c3ccccc32)C/C=C\C[C@@H](CC(=O)N[C@@H](CO)Cc2ccccc2)C(=O)N1 | – | – | – | – | 12.3 µM (active) | –
O=C(N/N=C/c1cc2ccccc2nc1Cl)[C@H]1C[C@@H]1c1ccccc1 | – | – | – | – | 39.9 µM (inactive) | –
Cn1c(N2CCOCC2)c(/C=N/OC(=O)c2ccc(F)cc2)c2ccccc21 | > 160 µM (inconclusive) | > 180 µM (inactive) | > 160 µM (inactive) | 0.382 µM (active) | – | IC50 [8]: 15.9 µM (active); EC50 [5]: 0.596 µM (active); EC50 [6]: 1.98 µM (active)
Sc1nnc(C2CCCCC2)n1/N=C/c1ccc(Br)s1 | > 150 µM (inactive) | > 180 µM (inactive) | 18.9 µM (active) | 1.07 µM (active) | – | –
C[C@@H]1CC[C@@]2(NC1)O[C@H]1C[C@H]3[C@@H]4CC=C5C[C@@H](O)CC[C@]5(C)[C@H]4CC[C@]3(C)[C@H]1[C@@H]2C | > 160 µM (inconclusive) | > 180 µM (inactive) | > 160 µM (inactive) | 0.272 µM (active) | – | –
CCC(=O)NC(c1ccco1)c1cc(Cl)c2cccnc2c1O (stereo not drawn) | 24.9 µM (active) | > 180 µM (inactive) | > 150 µM (inactive) | 0.56 µM (active) | – | EC50 [5]: 1.97 µM (active); AC50 [9]: 3.57 µM (active); AC50 [10]: 7.81 µM (active); EC50 [6]: 7.21 µM (active); AC50 [11]: 1.31 µM (active)
Cc1cc(C)c[n+](C(C)C(=O)c2ccc(-c3ccccc3)cc2)c1 (stereo not drawn) | – | – | – | – | 8.95 µM (active) | –
